Experimental data reported in patent US7572794B2, “Anthranilamide pyridinureas as vascular endothelial growth factor (VEGF) receptor kinase inhibitors” (Bayer Schering Pharma AG, priority 2004, dated 2009).

Assays:
KDR-Kinase (VEGFR-2) = biological target: T1, KDR-Kinase (VEGFR-2) (Homo sapiens, UniProt P35968); assay: KDR Kinase Inhibition; format: biochemical; conditions: GST-kinase domain fusion construct of KDR; poly(Glu4Tyr) substrate, 32P-ATP, 10 min
T1 construct: GST-kinase domain fusion construct of the KDR kinase; GST
T1 sequence (P35968 834-1162 limits assumed, species assumed): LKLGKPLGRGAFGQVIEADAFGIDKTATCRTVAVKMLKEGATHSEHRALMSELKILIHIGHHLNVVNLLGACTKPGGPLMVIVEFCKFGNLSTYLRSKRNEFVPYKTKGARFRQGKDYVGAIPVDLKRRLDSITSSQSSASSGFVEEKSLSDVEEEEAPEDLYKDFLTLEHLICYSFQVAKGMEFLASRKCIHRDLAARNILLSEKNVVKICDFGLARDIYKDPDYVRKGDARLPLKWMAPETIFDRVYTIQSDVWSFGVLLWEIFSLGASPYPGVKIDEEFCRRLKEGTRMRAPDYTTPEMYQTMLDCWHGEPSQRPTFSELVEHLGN
Method: Kinase activity was measured with a GST-kinase domain fusion construct of the KDR kinase according to the following protocol to obtain concentration response curves. Components were added into a microtiterplate in the following sequence: 10 μl of inhibitor in threefold final concentration [3% DMSO in buffer (40 mM TrisCl pH 7.5; 1 mM DTT, 1 mM MnCl2, 10 mM MgCl2, 2.5 Promille Polyethyleneglycol 20000)]and 10 μl of substrate mixture [24 μM ATP, 24 μg/ml poly(Glu4Tyr) in buffer, specific activity approx. 500 cpm/pmol ^32P-[…]ATP]. Reaction was started by adding 10 μl of enzyme preparation diluted appropriately in buffer that contains 10 μM vanadate. After incubation for exactly 10 min the reaction was stopped by adding of 10 μl stop solution (250 mM EDTA). 10 μl of the reaction mixture were transferred to phosphocellulose filters. The filters were washed in 0.1% phosphoric acid, dried before meltilex scintillator was applied (Waltac, Perkin-Elmer) and the radioactivity was counted.

[1] = biological target: T2, Cytochrome P450 isoenzyme 2C9 (Homo sapiens, UniProt P11712); assay: Cytochrome P450 Inhibition (2C9); format: in vitro ADME; conditions: baculovirus/insect cell-expressed human isoenzyme, method of Crespi et al.; read-out: IC50 CYP 2C9
T2 construct: host or cells: baculovirus/insect cells
T2 sequence (P11712 whole entry): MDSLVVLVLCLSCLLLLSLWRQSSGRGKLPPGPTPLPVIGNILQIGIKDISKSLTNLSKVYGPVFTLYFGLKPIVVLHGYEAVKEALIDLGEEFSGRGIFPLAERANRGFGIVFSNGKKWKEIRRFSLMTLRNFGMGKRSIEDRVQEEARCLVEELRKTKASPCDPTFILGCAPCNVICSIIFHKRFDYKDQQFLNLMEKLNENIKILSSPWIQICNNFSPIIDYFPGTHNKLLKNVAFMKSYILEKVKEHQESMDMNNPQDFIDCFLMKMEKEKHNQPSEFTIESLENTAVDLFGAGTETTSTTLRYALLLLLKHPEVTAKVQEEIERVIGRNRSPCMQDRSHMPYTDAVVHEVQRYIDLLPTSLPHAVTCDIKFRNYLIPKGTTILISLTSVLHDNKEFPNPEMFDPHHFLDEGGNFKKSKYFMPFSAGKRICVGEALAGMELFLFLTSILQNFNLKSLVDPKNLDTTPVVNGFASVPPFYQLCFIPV
Method: (§1) Cytochrome P450 Inhibition
(§2) The Cytochrome P450 isoenzyme inhibition was performed according to the publication of Crespi et al. (Anal. Biochem., 1997, 248, 188-190) with use of the baculovirus/insect cell-expressed, human Cytochrome P 450 isoenzymes (2C9 and 2C19).

[2] = biological target: T3, Cytochrome P450 isoenzyme 2C19 (Homo sapiens, UniProt P33261); assay: Cytochrome P450 Inhibition (2C19); format: in vitro ADME; conditions: baculovirus/insect cell-expressed human isoenzyme, method of Crespi et al.; read-out: IC50 CYP 2C19
T3 construct: host or cells: baculovirus/insect cells
T3 sequence (P33261 whole entry): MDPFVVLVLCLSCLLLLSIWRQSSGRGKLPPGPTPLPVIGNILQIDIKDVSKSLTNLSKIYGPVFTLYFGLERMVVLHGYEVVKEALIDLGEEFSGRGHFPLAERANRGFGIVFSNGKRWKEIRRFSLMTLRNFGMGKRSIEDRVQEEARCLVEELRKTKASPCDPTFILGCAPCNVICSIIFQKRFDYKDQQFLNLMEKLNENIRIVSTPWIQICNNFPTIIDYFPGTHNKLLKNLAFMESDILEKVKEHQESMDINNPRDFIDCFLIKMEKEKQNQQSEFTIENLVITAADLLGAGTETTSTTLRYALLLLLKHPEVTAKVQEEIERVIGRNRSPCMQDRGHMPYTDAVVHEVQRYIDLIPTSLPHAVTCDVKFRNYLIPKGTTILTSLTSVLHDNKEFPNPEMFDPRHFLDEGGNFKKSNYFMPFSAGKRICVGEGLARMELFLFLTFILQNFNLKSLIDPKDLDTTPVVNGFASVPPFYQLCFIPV
Method: as §1, §2

IC50 (KDR-Kinase (VEGFR-2)) [µM]	IC50 [1] [µM]	IC50 [2] [µM]	SMILES
0.02	16	27	Cn1cc2ccc(NC(=O)c3ccccc3NCc3ccnc(NC(=O)N4CCC(O)CC4)c3)cc2n1 [Example 1.1, 4-hydroxy-piperidine-1-carboxylic acid (4-{[2-(2-methyl-2H-indazol-6-ylcarbamoyl)-phenylamino]-methyl}-pyridin-2-yl)-amide]
0.017	19	12	Cn1cc2ccc(NC(=O)c3ccccc3NCc3ccnc(NC(=O)N4CCC(O)(C(F)(F)F)CC4)c3)cc2n1 [Example 1.2, 4-hydroxy-4-trifluoromethyl-piperidine-1-carboxylic acid (4-{[2-(2-methyl-2H-indazol-6-ylcarbamoyl)-phenylamino]-methyl}-pyridin-2-yl)-amide]
0.029	4.4	8.9	CN1CCN(C(=O)Nc2cc(CNc3ccccc3C(=O)Nc3ccc4cn(C)nc4c3)ccn2)CC1 [Example 3.0, 4-methyl-piperazine-1-carboxylic acid (4-{[2-(2-methyl-2H-indazol-6-ylcarbamoyl)-phenylamino]-methyl}-pyridin-2-yl)-amide]
0.029	13	9	Cn1cc2ccc(NC(=O)c3ccccc3NCc3ccnc(NC(=O)N4CCOCC4)c3)cc2n1 [Example 3.6, morpholine-4-carboxylic acid (4-{[2-(2-methyl-2H-indazol-6-ylcarbamoyl)-phenylamino]-methyl}-pyridin-2-yl)-amide]
